Series [1] deals with Mus musculus. The experiment in a line: Toxicity in ICR/Ha mouse forestomach assessed as body weight gained at 5 mg/kg administered through diet for 1 week prior to benzo[alpha]pyrene challenge and continued additional 2 days post last dose of benzo[alpha]pyrene relative to control. The settings on record: in vivo, po. On the set-up: dose 5 mg/kg. Type of series: organism-based, Stomach.

Series [2] deals with Mus musculus. Description: Toxicity in ICR/Ha mouse forestomach assessed as diet intake at 5 mg/kg administered through diet for 1 week prior to benzo[alpha]pyrene challenge and continued additional 2 days post last dose of benzo[alpha]pyrene (reference value: 4.3 g/day). Type of series: organism-based, Stomach. Further details: dose 5 mg/kg. The note with it: in vivo, po.
In series [3] the test system is Mus musculus. Description: Antineoplastic activity in ICR/Ha mouse forestomach assessed as decrease in benzo[alpha]pyrene-induced tumor incidence at 5 mg/kg administered through diet for 1 week prior to benzo[alpha]pyrene challenge and continued additional 2 days post last dose of benzo[alpha]pyrene by dissecting microscopic analysis relative to control. On the set-up: scale not given: the % may be the effect or the level left. In kind it is functional, Stomach.

In series [4] the test system is Mus musculus. The experiment in a line: Antineoplastic activity in ICR/Ha mouse forestomach assessed as inhibition of benzo[alpha]pyrene-induced tumor growth at 5 mg/kg administered through diet for 1 week prior to benzo[alpha]pyrene challenge and continued additional 2 days post last dose of benzo[alpha]pyrene by dissecting microscopic analysis relative to control. In kind it is functional, Stomach.

A short description of series [5]: Antioxidant activity of the compound relative to control. In kind it is functional.

Experimental findings from ChEMBL document CHEMBL3243969, “Synthesis and chemical carcinogen inhibitory activity of 2-tert-butyl-4-hydroxyanisole” (J Med Chem, 1979) are described below.

Where “and” joins values, the source holds several entries; their conditions need not be identical. Identical values can stand only once.

As usually defined, the TGI is the reduction of tumour growth relative to the control group. Consider `COc1ccc(O)c(C(C)(C)C)c1.COc1ccc(O)cc1C(C)(C)C` [BUTYLATED HYDROXYANISOLE], for which the Activity was 10.8 g and 7.4 g in the series on Mus musculus [1]; 3.6 g/day and 3.7 g/day in the series with Mus musculus [2]; 30% and 10% with Mus musculus [3]. Moreover, the TGI with Mus musculus [4] (5 mg/kg) worked out at 50%. Further, the inhibition in vivo at 5 mg/kg in the series with Mus musculus [4] (Mus musculus, ICR/Ha, Stomach, read-out: TGI) worked out at 70%. Moreover, in series [5], the fold change (FC) is 1.1 and 0.4.
